Test results as given in patent publication US6951878B2, “Benzo[b]thiophenyl or tetrahydro-benzo[b]thiophenyl modulators of protein tyrosine phosphatases (PTPases)” (Novo Nordisk A/S, priority 1998, dated 2005).
Counter-ions that a name gives are not always drawn.

Target: T1, truncated form of PTP1B (corresponding to the first 321 amino acids) (Homo sapiens, UniProt P18031)
T1 construct: a truncated form of PTP1B (corresponding to the first 321 amino acids); made in house; host or cells: E. coli
T1 sequence (P18031 1-321): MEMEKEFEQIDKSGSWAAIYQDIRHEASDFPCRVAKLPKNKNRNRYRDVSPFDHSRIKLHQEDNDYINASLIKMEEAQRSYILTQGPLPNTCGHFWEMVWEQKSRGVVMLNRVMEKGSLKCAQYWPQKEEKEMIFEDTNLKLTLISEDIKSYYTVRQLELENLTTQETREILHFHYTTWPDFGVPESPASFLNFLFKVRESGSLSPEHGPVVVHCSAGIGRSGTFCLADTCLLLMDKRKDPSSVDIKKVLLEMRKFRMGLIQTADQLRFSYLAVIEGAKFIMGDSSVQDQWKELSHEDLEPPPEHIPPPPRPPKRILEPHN
Assay: Inhibition of PTP1B, p-nitrophenyl phosphate substrate
Format: biochemical
Conditions: substrate p-nitrophenyl phosphate 0.16 to 10 mM; 100 mM sodium acetate pH 5.5; 25° C. for 60 minutes; absorbance at 405 nm
Protocol: The assay conditions are as follows. Appropriate concentrations of the compounds of the invention are added to the reaction mixtures containing different concentrations of the substrate, p-nitrophenyl phosphate (range: 0.16 to 10 mM—final assay concentration). The buffer used was 100 mM sodium acetate pH 5.5, 50 mM sodium chloride, 0.1% (w/v) bovine serum albumin and 5 mM dithiothreitol (total volume […]). The reaction was started by addition of the enzyme and carried out in microtiter plates at 25° C. for 60 minutes. The reactions are stopped by addition of NaOH. […] The data are analyzed using nonlinear regression fit to classical Michaelis Menten enzyme kinetic models. Inhibition is expressed as Ki values in μM.

Row | Ki [µM] | Structure (SMILES)
1 | 51 | O=C(O)C(=O)Nc1sc2c(c1C(=O)O)CCN(C(=O)c1ccccc1)C2 [Example 1, 6-Benzoyl-2-(oxalyl-amino)-4,5,6,7-tetrahydro-thien[2,3-c]pyridine-3-carboxylic acid, Mono Sodium Salt]
2 | 3 | O=C(O)C(=O)Nc1sc2c(c1C(=O)O)CCN(CCc1ccccc1)C2 [Example 6]
